This note sets out measurements from patent US12599647B2, “Peptide amide composition and preparation method therefor” (Xizang Haisco Pharmaceutical Co., Ltd., priority 2019, dated 2026).

Structures are written as SMILES. Several values for one entry are separate records, joined by “and”; a condition that tells them apart may be missing. Equal values may be shown once.

Holding throughout (type): physicochemical
Data set [1] in a line: Related substances in compound II solutions at different pH values (Table 1). The conditions noted are these: aqueous solutions, pH adjusted with glacial acetic acid or tartaric acid; 40°C±2°C, 10 days. As to the method:
(§1) 750 ml of water for injection was measured and taken; nitrogen was charged beneath the surface of the liquid for about 20 min; and the water temperature was controlled to be 50° C. or less. 37.5 mg of compound II was weighed, added to the above-mentioned water for injection and stirred to dissolution and clarification to obtain solution (1). Solution (1) was adjusted with glacial acetic acid (source: Chengdu Kelong Chemical Co., Ltd.) and tartaric acid to different pH values, respectively, and aqueous solutions containing compound II at different pH values were obtained. The aqueous solutions were placed under the conditions of 40° C.±2° C. for 10 days, and the performance of related substances in the solutions at different pH values was examined (including the solution at a pH value not being adjusted), with data shown in Table 1.

A short description of data set [2]: Related substances in compound II solutions at pH range 3-5.5 (Table 2). The conditions noted are these: aqueous solution, pH adjusted with glacial acetic acid; 40°C±2°C, 10 days. The procedure: as §1, with “Considering the operability of industrial production, we examined the stability of solutions at a pH range of 3-5.5. 750” for “750”, “Ltd.)” for “Ltd.) and tartaric acid”, “values,” for “values, respectively,”, “examined,” for “examined (including the solution at a pH value not being adjusted),”, “2.” for “1.”

A short description of data set [3]: Related substances of formulation solutions for injection after high temperature acceleration at 40°C. The conditions noted are these: compound II raw material (stored refrigerated 2°C-8°C), control, 0 days. As to the method: The sample of Formulation 1 solution for injection was placed under the conditions of 40° C.±2° C. for 5 days; compound II raw material (stored under refrigerated conditions of 2° C.-8° C.) was used as a control; and changes of related substances in the sample were examined, with data shown in Table 3.
Formulation 2 solution for injection was placed under the conditions of 40° C. 2° C. for 5 days; compound II raw material (stored under refrigerated conditions of 2° C.-8° C.) was used as a control; and changes of related substances in the sample were examined, with data shown in Table 4.
Formulation 3 solution for injection was placed under the conditions of 40° C. 2° C. for 5 days; compound II raw material (stored under refrigerated conditions of 2° C.-8° C.) was used as a control; and changes of related substances in the sample were examined, with data shown in Table 5.
Formulation 4 solution for injection was placed under the conditions of 40° C. 2° C. for 9 days; compound II raw material (stored under refrigerated conditions of 2° C.-8° C.) was used as a control; and changes of related substances in the sample were examined, with data shown in Table 6.
Formulation 5 solution for injection was placed under the conditions of 40° C. […]

In the case of `CC(=O)N1CC2(CCN(C(=O)[C@@H](CCCCN)NC(=O)[C@@H](CC(C)C)NC(=O)[C@@H](Cc3ccccc3)NC(=O)[C@H](N)Cc3ccccc3)CC2)C1` [Compound II], the “pH value of best stability” value in data set [1] was “about 4”. In addition, the “pH range at which the product is stable” value in data set [2] is given as 3-5.5. The “Total impurity (%)” value in data set [3] was 1.098% and 1.238%.
